Our source for the Kd values is ChEMBL document CHEMBL3991601, “The target landscape of clinical kinase drugs” (Science, 2017).

One assay deals with Ephrin type-A receptor 2 (Homo sapiens, UniProt P29317).
Assay [1] concerns the target MAP kinase-activated protein kinase 2 (Homo sapiens, UniProt P49137).
The target of assay [2] is T1, Calcium/calmodulin-dependent protein kinase type IV (Homo sapiens, UniProt Q16566).
T1 sequence (Q16566 whole entry): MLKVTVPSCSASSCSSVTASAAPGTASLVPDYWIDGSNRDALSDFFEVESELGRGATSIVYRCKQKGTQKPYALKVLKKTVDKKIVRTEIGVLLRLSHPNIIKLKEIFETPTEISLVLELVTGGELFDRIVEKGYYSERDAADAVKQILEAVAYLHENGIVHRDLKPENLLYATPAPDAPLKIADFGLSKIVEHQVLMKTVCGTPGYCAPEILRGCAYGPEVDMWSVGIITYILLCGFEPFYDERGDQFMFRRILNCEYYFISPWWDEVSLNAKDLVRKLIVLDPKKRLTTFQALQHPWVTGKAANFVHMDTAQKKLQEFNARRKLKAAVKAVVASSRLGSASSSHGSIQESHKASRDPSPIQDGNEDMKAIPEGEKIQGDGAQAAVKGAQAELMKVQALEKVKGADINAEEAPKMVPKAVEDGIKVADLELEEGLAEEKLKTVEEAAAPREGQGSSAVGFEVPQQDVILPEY

Assay [3] addresses Mitogen-activated protein kinase kinase kinase 1 (Homo sapiens, UniProt Q13233).
Assay [4] has as its target T2, Acyl-CoA dehydrogenase family member 10 (Homo sapiens, UniProt Q6JQN1).
T2 sequence (Q6JQN1 whole entry): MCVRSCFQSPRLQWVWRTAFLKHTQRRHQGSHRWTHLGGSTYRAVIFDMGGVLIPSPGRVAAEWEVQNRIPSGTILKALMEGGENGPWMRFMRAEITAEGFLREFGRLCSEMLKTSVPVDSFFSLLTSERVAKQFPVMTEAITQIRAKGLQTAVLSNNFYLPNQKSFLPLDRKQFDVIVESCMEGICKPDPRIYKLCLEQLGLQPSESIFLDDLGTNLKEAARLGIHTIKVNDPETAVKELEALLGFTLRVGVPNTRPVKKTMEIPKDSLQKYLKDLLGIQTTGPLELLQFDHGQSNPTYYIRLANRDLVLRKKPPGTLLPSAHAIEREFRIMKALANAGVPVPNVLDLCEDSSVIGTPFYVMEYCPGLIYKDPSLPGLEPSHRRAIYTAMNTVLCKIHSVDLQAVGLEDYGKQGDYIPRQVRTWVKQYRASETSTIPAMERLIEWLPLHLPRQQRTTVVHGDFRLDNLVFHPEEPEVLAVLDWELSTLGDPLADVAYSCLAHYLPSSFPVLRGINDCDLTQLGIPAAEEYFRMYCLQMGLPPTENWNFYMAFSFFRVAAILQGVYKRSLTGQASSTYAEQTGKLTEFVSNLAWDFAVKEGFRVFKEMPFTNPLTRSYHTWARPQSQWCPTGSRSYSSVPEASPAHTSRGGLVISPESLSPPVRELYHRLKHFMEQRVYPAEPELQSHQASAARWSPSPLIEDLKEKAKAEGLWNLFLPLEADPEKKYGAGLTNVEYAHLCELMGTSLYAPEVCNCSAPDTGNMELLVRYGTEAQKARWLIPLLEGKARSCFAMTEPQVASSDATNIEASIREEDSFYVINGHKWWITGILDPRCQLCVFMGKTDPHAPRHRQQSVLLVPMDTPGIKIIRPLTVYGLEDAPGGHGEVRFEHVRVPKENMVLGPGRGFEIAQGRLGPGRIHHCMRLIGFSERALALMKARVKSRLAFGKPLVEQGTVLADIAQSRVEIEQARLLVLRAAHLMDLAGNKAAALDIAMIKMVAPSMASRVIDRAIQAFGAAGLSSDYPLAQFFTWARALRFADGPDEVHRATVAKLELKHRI

For assay [5], the target named is T3, Serine/threonine-protein kinase D3 (Homo sapiens, UniProt O94806).
T3 sequence (O94806 whole entry): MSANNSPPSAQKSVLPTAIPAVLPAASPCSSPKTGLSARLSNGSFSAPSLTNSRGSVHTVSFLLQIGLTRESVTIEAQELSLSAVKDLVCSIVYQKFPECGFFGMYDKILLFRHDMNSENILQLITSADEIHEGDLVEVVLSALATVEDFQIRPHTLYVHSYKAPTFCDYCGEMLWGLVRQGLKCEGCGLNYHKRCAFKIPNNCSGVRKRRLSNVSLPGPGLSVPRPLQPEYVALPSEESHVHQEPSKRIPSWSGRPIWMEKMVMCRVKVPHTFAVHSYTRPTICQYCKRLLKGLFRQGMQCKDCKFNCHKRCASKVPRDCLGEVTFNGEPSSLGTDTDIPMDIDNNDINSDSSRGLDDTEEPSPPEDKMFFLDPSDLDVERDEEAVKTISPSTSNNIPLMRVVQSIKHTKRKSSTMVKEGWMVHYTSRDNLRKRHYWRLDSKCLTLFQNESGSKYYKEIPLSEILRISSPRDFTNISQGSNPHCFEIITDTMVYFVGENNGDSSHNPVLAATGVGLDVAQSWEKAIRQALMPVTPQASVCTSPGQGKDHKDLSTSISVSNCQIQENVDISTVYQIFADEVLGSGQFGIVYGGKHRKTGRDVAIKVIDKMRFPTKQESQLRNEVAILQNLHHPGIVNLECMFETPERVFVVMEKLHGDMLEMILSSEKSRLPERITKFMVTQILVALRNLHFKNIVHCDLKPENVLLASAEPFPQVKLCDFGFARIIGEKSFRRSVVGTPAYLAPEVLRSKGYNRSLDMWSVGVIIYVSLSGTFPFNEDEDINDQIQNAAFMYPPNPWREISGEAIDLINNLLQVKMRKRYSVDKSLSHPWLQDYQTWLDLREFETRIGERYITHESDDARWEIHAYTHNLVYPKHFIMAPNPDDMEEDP

For assay [6], the target named is Cyclin-dependent kinase 13 (Homo sapiens, UniProt Q14004).
In another assay the target is Deoxycytidine kinase (Homo sapiens, UniProt P27707).
The target of assay [7] is T4, Ras-related protein Rab-27A (Homo sapiens, UniProt P51159).
T4 sequence (P51159 whole entry): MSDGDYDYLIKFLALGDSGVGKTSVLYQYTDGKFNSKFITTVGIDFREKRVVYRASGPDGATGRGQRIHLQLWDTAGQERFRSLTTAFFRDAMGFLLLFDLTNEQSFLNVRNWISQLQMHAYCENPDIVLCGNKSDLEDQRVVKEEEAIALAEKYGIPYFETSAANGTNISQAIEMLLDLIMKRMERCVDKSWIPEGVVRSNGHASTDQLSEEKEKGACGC

The target in assay [8] is Insulin-like growth factor 1 receptor (Homo sapiens, UniProt P08069).

For orientation: Kd means the concentration at which binding is half-saturated.

The structures appear in SMILES notation. Counter-ions that a name gives are not always drawn. The source made the active and inactive calls. Rule as the data show it, for most assays here: actives have a measured Kd and inactives only a lower limit. Where only a bound is given, the exact number is not on record here.
Also: in the data inactive means no Kd found up to 30 µM.

Sequence of Deoxycytidine kinase (P27707 whole entry): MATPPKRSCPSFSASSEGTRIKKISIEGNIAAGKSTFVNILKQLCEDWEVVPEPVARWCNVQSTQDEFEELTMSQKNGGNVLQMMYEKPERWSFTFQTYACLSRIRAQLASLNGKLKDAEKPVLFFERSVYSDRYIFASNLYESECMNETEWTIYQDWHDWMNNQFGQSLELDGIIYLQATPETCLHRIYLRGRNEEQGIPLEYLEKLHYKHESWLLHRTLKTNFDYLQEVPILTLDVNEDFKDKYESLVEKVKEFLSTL
Sequence of MAP kinase-activated protein kinase 2 (P49137 whole entry): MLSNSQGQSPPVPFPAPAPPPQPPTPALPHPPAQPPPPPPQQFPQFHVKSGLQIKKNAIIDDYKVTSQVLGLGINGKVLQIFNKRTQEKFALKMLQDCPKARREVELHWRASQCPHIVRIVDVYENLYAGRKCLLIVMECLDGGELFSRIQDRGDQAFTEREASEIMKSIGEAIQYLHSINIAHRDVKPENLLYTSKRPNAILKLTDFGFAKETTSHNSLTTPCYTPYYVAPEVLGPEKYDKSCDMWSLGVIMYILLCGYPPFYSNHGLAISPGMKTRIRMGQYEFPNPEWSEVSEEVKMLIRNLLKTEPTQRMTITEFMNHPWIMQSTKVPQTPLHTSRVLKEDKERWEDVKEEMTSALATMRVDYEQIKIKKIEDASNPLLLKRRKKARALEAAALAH
Sequence of Cyclin-dependent kinase 13 (Q14004 whole entry): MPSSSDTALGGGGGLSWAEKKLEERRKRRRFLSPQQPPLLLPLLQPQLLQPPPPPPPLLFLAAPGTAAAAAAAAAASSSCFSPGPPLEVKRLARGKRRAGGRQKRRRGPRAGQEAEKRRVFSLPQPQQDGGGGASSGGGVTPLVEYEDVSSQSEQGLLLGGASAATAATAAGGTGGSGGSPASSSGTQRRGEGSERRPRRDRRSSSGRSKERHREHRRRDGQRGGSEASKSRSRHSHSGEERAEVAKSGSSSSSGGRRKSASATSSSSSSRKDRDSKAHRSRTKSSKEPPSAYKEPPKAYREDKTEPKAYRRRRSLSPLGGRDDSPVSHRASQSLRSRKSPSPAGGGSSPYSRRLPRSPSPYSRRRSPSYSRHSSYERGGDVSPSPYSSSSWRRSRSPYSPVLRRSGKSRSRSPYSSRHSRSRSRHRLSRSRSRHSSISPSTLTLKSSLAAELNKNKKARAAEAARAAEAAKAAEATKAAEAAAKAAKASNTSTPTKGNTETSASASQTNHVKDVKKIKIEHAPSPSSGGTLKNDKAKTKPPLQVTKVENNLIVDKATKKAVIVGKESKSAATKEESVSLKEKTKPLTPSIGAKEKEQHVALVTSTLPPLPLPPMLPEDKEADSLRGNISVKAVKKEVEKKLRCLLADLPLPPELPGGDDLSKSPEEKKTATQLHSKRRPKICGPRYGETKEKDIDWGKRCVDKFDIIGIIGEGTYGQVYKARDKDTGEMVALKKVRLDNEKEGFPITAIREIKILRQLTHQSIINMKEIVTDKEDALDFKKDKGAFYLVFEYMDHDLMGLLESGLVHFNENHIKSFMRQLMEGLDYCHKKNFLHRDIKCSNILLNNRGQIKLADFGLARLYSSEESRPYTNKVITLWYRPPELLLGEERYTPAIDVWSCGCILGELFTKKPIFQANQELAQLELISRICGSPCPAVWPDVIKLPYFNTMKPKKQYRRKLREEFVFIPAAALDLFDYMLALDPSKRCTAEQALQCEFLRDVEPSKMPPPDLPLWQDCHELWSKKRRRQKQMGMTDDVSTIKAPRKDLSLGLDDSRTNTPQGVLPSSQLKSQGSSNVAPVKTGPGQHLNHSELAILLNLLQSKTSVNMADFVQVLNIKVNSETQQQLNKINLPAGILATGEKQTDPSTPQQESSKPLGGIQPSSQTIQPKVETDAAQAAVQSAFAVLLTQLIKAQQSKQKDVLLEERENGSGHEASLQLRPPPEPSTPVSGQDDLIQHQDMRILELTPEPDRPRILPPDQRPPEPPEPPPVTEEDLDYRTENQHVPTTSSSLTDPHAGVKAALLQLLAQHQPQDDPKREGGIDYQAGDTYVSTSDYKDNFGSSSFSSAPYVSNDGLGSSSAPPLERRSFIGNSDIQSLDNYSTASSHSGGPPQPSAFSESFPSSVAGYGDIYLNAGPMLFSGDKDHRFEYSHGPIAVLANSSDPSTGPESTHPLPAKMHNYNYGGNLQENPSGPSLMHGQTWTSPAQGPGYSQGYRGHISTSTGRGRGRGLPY
Sequence of Insulin-like growth factor 1 receptor (P08069 31-736 limits assumed): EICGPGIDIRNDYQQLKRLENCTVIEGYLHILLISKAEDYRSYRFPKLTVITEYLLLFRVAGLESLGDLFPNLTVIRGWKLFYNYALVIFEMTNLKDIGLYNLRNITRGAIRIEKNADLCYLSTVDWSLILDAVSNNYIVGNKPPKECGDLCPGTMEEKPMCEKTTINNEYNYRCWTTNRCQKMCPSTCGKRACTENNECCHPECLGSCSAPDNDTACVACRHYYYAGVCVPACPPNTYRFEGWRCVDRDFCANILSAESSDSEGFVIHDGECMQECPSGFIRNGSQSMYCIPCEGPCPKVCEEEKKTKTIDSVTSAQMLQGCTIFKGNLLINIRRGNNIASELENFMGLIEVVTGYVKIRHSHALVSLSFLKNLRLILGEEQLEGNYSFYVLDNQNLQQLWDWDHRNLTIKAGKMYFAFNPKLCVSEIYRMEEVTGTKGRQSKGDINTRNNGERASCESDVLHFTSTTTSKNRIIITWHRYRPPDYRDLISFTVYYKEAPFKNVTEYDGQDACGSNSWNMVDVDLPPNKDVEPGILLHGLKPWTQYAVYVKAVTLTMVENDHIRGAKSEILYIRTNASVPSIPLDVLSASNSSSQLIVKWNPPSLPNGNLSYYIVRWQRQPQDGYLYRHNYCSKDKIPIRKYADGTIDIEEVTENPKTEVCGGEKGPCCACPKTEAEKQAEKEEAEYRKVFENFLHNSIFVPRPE
Sequence of Insulin-like growth factor 1 receptor (P08069 741-1367 limits assumed): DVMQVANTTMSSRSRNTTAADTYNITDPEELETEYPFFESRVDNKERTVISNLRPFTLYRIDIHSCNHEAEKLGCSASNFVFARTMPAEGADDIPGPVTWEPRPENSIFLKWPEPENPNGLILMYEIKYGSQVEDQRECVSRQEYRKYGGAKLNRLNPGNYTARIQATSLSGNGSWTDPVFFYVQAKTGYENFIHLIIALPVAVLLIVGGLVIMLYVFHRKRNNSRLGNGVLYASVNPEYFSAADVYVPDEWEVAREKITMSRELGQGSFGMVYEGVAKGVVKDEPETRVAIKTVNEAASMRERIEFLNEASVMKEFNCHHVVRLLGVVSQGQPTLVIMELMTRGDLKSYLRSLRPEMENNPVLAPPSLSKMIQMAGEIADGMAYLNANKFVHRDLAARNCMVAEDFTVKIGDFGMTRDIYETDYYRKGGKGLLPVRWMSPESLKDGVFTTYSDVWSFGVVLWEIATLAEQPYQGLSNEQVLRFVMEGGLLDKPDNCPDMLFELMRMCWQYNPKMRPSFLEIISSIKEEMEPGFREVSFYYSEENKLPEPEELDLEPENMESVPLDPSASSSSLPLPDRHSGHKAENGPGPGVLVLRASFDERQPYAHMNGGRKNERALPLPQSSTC
Sequence of Mitogen-activated protein kinase kinase kinase 1 (Q13233 whole entry): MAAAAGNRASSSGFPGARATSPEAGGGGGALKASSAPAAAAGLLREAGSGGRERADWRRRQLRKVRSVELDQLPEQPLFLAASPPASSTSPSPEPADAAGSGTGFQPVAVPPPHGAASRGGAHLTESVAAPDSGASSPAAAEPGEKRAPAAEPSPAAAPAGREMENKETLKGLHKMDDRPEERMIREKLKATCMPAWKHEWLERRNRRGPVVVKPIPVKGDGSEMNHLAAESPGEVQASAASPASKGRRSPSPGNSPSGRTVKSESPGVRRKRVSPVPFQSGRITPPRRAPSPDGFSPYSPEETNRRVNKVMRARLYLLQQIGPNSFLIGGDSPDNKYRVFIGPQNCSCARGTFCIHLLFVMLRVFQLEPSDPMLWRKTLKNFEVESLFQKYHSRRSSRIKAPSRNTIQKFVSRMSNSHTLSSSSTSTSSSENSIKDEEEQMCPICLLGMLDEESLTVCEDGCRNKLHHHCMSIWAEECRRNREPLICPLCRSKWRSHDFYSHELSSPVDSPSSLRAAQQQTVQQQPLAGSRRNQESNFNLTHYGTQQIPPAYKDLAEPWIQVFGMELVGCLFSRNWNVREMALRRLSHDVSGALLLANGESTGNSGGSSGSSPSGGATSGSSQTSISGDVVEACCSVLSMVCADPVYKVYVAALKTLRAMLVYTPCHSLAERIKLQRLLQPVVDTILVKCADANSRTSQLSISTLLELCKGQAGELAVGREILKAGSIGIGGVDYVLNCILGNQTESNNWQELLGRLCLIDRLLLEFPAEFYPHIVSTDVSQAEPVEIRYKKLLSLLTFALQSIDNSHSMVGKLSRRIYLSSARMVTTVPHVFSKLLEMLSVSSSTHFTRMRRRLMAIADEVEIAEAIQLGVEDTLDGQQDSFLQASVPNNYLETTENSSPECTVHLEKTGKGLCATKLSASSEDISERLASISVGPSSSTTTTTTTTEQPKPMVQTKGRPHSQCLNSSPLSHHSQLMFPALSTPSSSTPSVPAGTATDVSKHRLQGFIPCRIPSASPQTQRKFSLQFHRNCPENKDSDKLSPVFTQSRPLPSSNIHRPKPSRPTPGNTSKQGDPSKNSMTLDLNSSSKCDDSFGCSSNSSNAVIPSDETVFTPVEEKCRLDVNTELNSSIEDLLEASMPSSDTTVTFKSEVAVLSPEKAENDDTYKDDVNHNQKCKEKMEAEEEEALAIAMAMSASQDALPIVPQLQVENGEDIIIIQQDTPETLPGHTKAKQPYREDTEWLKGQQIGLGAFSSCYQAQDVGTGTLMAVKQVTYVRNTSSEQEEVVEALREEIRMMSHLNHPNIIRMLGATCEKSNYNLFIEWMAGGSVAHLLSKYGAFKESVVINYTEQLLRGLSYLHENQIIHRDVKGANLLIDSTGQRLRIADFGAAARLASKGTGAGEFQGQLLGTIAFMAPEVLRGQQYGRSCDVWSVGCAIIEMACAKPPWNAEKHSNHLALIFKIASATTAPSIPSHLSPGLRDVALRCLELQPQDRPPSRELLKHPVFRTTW

Take `CCn1c(C(=O)N(C2CC2)C2CC2)cc2c3c(ncn3C)c(Nc3cc(C)n(C)n3)nc21` [BMS-911543]: the Kd (on Ephrin type-A receptor 2; in [1]; in assay [2]; in assay [3]; in assay [4]; in assay [5]) was > 30 µM (inactive) each time. The Kd (in [6]; at Deoxycytidine kinase; in assay [7]; in assay [8]) was > 30 µM (inactive) each time.

`COc1c(OCCCN2CCOCC2)ccc2c1N=C(NC(=O)c1cnc(N)nc1)N1CCN=C21` [COPANLISIB]: the Kd (on Ephrin type-A receptor 2; in assay [1]; in assay [2]; in assay [3]; in assay [4]; in assay [5]) was > 30 µM (inactive) throughout. The Kd was > 30 µM (inactive) in assay [6], > 30 µM (inactive) on Deoxycytidine kinase, 4.49 µM in assay [7] and > 30 µM (inactive) in [8].

`COCC(=O)NC/C=C/c1ccc2ncnc(Nc3ccc(Oc4ccc(C)nc4)c(C)c3)c2c1` [CP-724714]: the Kd (on Ephrin type-A receptor 2; in assay [1]; in [2]; in assay [3]; in [4]; in assay [5]) was > 30 µM (inactive) throughout. Also, the Kd (in [6]; at Deoxycytidine kinase; in [7]; in assay [8]) was > 30 µM (inactive) throughout.

As to `C#Cc1cccc(Nc2ncnc3cc(OC)c(OCCCCCCC(=O)NO)cc23)c1` [CUDC-101], the Kd is > 30 µM (inactive) on Ephrin type-A receptor 2; > 30 µM (inactive) in [1]; > 30 µM (inactive) in assay [2]; 1.28 µM (active) in [3]; > 30 µM (inactive) in assay [4]; > 30 µM (inactive) in assay [5]. For the same compound, the Kd (in [6]; at Deoxycytidine kinase; in assay [7]; in assay [8]) was > 30 µM (inactive) each time.

Consider `CCS(=O)(=O)N1CCN(c2ccc(Nc3ncc(C(N)=O)c(NC4CC4)n3)cc2)CC1` [Cerdulatinib Hydrochloride], for which the Kd is > 30 µM (inactive) on Ephrin type-A receptor 2; > 30 µM (inactive) in assay [1]; > 30 µM (inactive) in assay [2]; > 30 µM (inactive) in assay [3]; > 30 µM (inactive) in assay [4]; 1.06 µM (active) in [5]. The Kd (in [6]; at Deoxycytidine kinase; in assay [7]; in [8]) was > 30 µM (inactive) each time.

As for `O=C(Nc1nc2cccc(-c3ccc(CN4CCS(=O)(=O)CC4)cc3)n2n1)C1CC1` [FILGOTINIB], the Kd (on Ephrin type-A receptor 2; in assay [1]; in assay [2]; in [3]; in assay [4]; in assay [5]) was > 30 µM (inactive) each time. For the same compound, the Kd (in [6]; at Deoxycytidine kinase; in [7]; in assay [8]) was > 30 µM (inactive) throughout.

In the case of `Cc1cccc(-c2nn3c(c2-c2ccnc4ccc(C(N)=O)cc24)CCC3)n1` [GALUNISERTIB], the Kd (at Ephrin type-A receptor 2; in assay [1]; in assay [2]; in [3]; in [4]; in [5]) was > 30 µM (inactive) each time. Moreover, the Kd (in assay [6]; at Deoxycytidine kinase; in [7]; in [8]) was > 30 µM (inactive) each time.
